Target: T1, P2X2 receptor (Rattus norvegicus, UniProt P49653)
T1 sequence (P49653 1-472): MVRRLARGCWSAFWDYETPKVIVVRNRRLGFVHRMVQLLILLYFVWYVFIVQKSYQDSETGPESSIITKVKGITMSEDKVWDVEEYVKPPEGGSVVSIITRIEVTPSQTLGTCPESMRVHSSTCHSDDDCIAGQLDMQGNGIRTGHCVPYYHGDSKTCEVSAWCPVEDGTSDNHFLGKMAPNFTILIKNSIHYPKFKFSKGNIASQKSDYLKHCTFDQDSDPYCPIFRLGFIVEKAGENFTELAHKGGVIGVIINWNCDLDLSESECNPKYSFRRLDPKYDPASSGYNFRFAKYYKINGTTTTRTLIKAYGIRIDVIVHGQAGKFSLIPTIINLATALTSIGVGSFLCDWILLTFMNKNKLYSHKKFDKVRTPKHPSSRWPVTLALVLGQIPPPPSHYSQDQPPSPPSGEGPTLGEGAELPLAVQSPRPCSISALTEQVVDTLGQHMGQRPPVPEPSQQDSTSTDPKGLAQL
Assay: outside-out patch clamp, peak current, 2-s ATP pulses
Type: cell-based

EC50: 9.8 µM
Compound: Nc1ncnc2c1ncn2[C@@H]1O[C@H](COP(=O)(O)OP(=O)(O)OP(=O)(O)O)[C@@H](O)[C@H]1O [ATP]

Source: article PMC2151634 (The Journal of General Physiology, 2007)
